Results reported in patent publication US10004679B2, “Compositions of Amorphophallus konjac and methods for their use in skin care” (Vidya Herbs, Inc., priority 2014, dated 2018).

Key:
Type in all cases: biochemical
[1] = target: Porcine pancreatic elastase (Sus scrofa, UniProt P00772); assay: In vitro anti-elastase activity
Method: The assay employed was based on methods from the literature. This assay was performed in 0.2 mM Tris-HCL buffer (pH 8.0). Porcine pancreatic elastase (PE-E.C.3.4.21.36) was dissolved to make a 3.33 mg/mL stock solution in sterile water. The substrate N-succinyl-Ala-Ala-Ala-p-nitroanilide (AAAPVN) was dissolved in buffer at 1.6 mM. The test extracts were incubated with the enzyme for 15 minutes before adding substrate to begin the reaction. The final reaction mixture (250 μL total volume) contained buffer, 0.8 mM AAAPVN,1 mg/mL PE and 25 mg test extract. EGCG (1 mg/mL) was used as a positive control. Negative controls were performed using water. Absorbance values between 381 and 402 nm (following pre-screen scans) were measured immediately following addition of the substrate and then continuous for 20 minutes. FIG. 6

[2] = system: Collagenase from Clostridium histolyticum; assay: In vitro anti-collagenase activity (FALGPA substrate)
Method: The assay employed was based on spectrophotometric methods reported in the literature. The assay was performed in 50 mM Tricine buffer (pH 7.5 with 400 mM NaCl and 10 mM CaCl2). Collagenase from Clostridium histolyticum (ChC-[…]) was dissolved in buffer for use at an initial concentration of 0.8 units/mL according to the supplier's activity data. The synthetic substrate N-[3-(2-furyl)acryloyl]-Leu-Gly-Pro-Ala (FALGPA) was dissolved in Tricine buffer to 2 mM. […] The final reaction mixture (150 μL total volume) contained Tricine buffer, 0.8 mM FALGPA, 0.1 units ChC and 20-100 μg test extracts. Negative controls were performed with water. Absorbance at 335 nm was measured immediately after adding substrate and then continuous for 20 minutes. EGCG, 250 μM (0.114 mg/mL) was used as a positive control. FIG. 9

Mushroom tyrosinase = assay: In vitro anti-tyrosinase activity (L-DOPA, dopachrome at 475 nm)
Method: Mushroom tyrosinase (Prod. No. T7755) and L-DOPA were purchased from Sigma Adrich. […] We also prepared positive controls of lmg/mL kojic acid solutions (with water), with enzyme. Twenty 20 μL of 0.85 mM L-DOPA solution as the substrate was added into every sample and blank. These assay mixtures were incubated at 25° C. for 10 min. The amount of dopachrome produced in the reaction mixture was measured at 475 nm.

Chain of Porcine pancreatic elastase (P00772 27-266): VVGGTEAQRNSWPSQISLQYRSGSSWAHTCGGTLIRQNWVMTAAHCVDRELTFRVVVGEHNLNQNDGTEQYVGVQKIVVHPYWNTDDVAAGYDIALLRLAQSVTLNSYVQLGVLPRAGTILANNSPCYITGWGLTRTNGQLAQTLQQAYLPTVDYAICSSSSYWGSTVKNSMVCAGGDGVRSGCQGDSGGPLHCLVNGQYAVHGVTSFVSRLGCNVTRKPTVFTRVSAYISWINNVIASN

Row | SMILES | % inhibition of Elastase activity ([1]; 20 μg/ml) [%] | % inhibition of Elastase activity ([1]; 40 μg/ml) [%] | % inhibition of Elastase activity ([1]; 60 μg/ml) [%] | % inhibition of Elastase activity ([1]; 80 μg/ml) [%] | % inhibition of Elastase activity ([1]; 100 μg/ml) [%] | % inhibition of Collagenase activity ([2]; 20 μg/ml) [%] | % inhibition of Collagenase activity ([2]; 40 μg/ml) [%] | % inhibition of Collagenase activity ([2]; 60 μg/ml) [%] | % inhibition of Collagenase activity ([2]; 80 μg/ml) [%] | % inhibition of Collagenase activity ([2]; 100 μg/ml) [%] | % inhibition of tyrosinase activity (Mushroom tyrosinase; 20 μg/ml) [%] | % inhibition of tyrosinase activity (Mushroom tyrosinase; 40 μg/ml) [%] | % inhibition of tyrosinase activity (Mushroom tyrosinase; 60 μg/ml) [%] | % inhibition of tyrosinase activity (Mushroom tyrosinase; 80 μg/ml) [%] | % inhibition of tyrosinase activity (Mushroom tyrosinase; 100 μg/ml) [%]
1 | O=C(O[C@@H]1Cc2c(O)cc(O)cc2O[C@@H]1c1cc(O)c(O)c(O)c1)c1cc(O)c(O)c(O)c1 [EGCG, epigallocatechin gallate] | 43.98 | 54.36 | 53.32 | 60.37 | 62.45 | 8.30 | 16.93 | 25.83 | 32.70 | 41.52 |  |  |  |  | 
2 | O=c1cc(CO)occ1O [Kojic acid, kojic acid] |  |  |  |  |  |  |  |  |  |  | 64.46 | 77.66 | 88.32 | 91.37 | 93.90
